Measured values taken from paper PMC10931745 (International Journal of Molecular Sciences, 2024).
Read-outs that look alike come from different tables or passages of the source.

Columns and labels:
[1] = system: human mammary epithelial cell line MCF-10A; test: MTT assay, toxicity towards normal cells; type: cell-based; details: 72 h
Method: (§1) The cell lines used were purchased from American Type Culture Collection (ATCC, Manassas, VA, USA). Human breast cancer cells MCF-7 and MDA-MB-231, human mammary epithelial cell line MCF-10A, and mouse BALB/3T3 embryonic fibroblasts were cultured as already described by some of us. The murine macrophage cell line RAW 264.7 was maintained in Dulbecco’s Modified Eagle’s Medium (DMEM) high glucose (4.5 g/L) supplemented with 10% Fetal Bovine Serum (FBS), 1% L-glutamine, and 100 units/mL of penicillin/streptomycin. The cell cultures were maintained at the temperature of 37 °C in a humidified atmosphere containing 5% CO2.
(§2) The 3-(4,5-dimethylthiazol-2-yl)-2,5-diphenyl-2H-tetrazolium bromide (MTT) assay (Sigma Aldrich (St. Louis, MO, USA)) was carried out to study the in vitro anticancer activities of the complexes, following the previously reported protocol. The cells were incubated for 72 h with different concentrations of the tested compounds (0.1, 1, 10, 25, 50, 100, and 500 µM) and the IC50 values were calculated from the percent (%) of control using the software GraphPad Prism 9 (GraphPad Software, La Jolla, CA, USA).

[2] = ABTS radical scavenging assay; type: biochemical
Method: The radical scavenging properties of the complexes on a 2,20-azino-bis(3-ethylbenzothiazoline-6-sulfonate) radical cation (ABTS^+) were evaluated as previously described.
All the complexes were used at different concentrations (5, 10, 25, 50, and 100 µg/mL) and the ABTS radical scavenging activity, measured at 730 nm using a microplate reader, was expressed as inhibition percentages (%IABTS) compared tothe control, according to the following expression:(3) IABTS (%)=ABSCTRL−ABSsample/ABSCTRL∗100 where ABSCTRL and ABSsample are the absorbance at 730 nm in the control and in the presence of samples, respectively.
IC50 values were calculated from the %IABTS using GraphPad Prism 9 software (GraphPad Inc., San Diego, CA, USA). Trolox was employed as a positive control, while caffeine and theophylline were reference compounds.

[3] = system: Salmonella typhimurium (ATCC 14028); test: MIC/MBC broth dilution; type: cell-based
Method: (§3) The bacterial strains used for MIC and MBC value determinations expressed as µg/mL by the broth dilution method, according to CLSI guidelines, were the following:
(§4) Increasing concentrations of the complexes (50, 70, 100, 150, and 200 µg/mL) were incubated with bacteria plated in 96-well microplates at 37 °C overnight as already reported, and then bacterial growth was checked at a wavelength of 600 nm using a Multiskan spectrophotometer (model Multiskan Ex Microplate; Thermo Scientific, Nyon, Switzerland). MIC or MBC values were obtained by comparing cell density with a positive control (bacterial cells grown in LB medium were added with only the vehicle, DMSO). […] Ampicillin, Gentamicin, and Cephalosporin (Sigma Aldrich A9393) were used as the control for strain sensitivity.

[4] = system: Pseudomonas aeruginosa (ATCC 15442); test: MIC/MBC broth dilution; type: cell-based
Method: as §3, §4

MDA-MB-231 = test: MTT cell viability assay; type: cell-based, human; details: 72 h
Method: as §1, §2

MCF-7 = test: MTT cell viability assay; type: cell-based, human; details: 72 h
Method: as §1, §2

[5] = system: COX-1 expression in RAW 264.7 macrophages; test: Immunofluorescence, COX-1 expression; type: cell-based, murine; details: 25 µM, co-treated with LPS 1 µg/mL
Method: (§5) After a PBS wash, cells were fixed using cold methanol (15 min at −20 °C) and incubated overnight at 4 °C with the primary antibodies raised against NF-κB, iNOS, TNF-α, and COX-1 and 2 (Santa Cruz Biotechnology Inc., Santa Cruz, CA, USA) diluted in BSA 2%, as previously described. […] DAPI (Sigma Aldrich, Milan, Italy) 0.2 µg/mL was added for 10 min for nuclei counterstaining. A fluorescence microscope (Leica DM 6000) was used for visualizing images, and LAS-X software 3.5.7.23225 was used for acquisition and processing.

[6] = system: iNOS expression in RAW 264.7 macrophages; test: Immunofluorescence, iNOS expression; type: cell-based, murine; details: 25 µM, co-treated with LPS 1 µg/mL
Method: as §5

[7] = system: NO production in LPS-stimulated RAW 264.7 macrophages; test: Griess assay, NO production; type: cell-based, murine; details: 25 µM, LPS 1 µg/mL, 24 h
Method: The Griess assay was performed using RAW 264.7 murine macrophages to study the anti-inflammatory activity in terms of NO production. RAW 264.7 cells were plated in the 48 multi-wells and, after 24 h, treated with the tested molecules (25 µM) and the lipopolysaccharide (LPS, Sigma Aldrich, Milan, Italy) at a final concentration of 1 µg/mL. LPS is able to induce inflammation by stimulating NO production in immune system cells such as macrophages. After 24 h, the cell medium Griess reagent (Sigma Aldrich, Milan, Italy) was mixed in with a ratio of 1:1. The Griess reagent allowed for the quantification of NO released by macrophages in the treatment medium. The mixture was left for 30 min under agitation and, subsequently, the absorbance at 540 nm was measured using a multiplate reader. The obtained absorbance allowed us to calculate the NO production % compared to the absorbance obtained for the positive control, in which the cells were treated with LPS.

[8] = system: Escherichia coli (ATCC 25922); test: MIC/MBC broth dilution; type: cell-based
Method: as §3
(§6) -4 Gram-negative: Escherichia coli (ATCC® 25922^TM) and Klebsiella pneumoniae (ATCC® 13883^TM);
(§7) Increasing concentrations of the complexes (50, 70, 100, 150, and 200 µg/mL) were incubated with bacteria plated in 96-well microplates at 37 °C overnight as already reported, and then bacterial growth was checked at a wavelength of 600 nm using a Multiskan spectrophotometer (model Multiskan Ex Microplate; Thermo Scientific, Nyon, Switzerland). MIC or MBC values were obtained by comparing cell density with a positive control (bacterial cells grown in LB medium were added with only the vehicle, DMSO). The results were representative of three independent experiments performed in triplicate. Ampicillin, Gentamicin, and Cephalosporin (Sigma Aldrich A9393) were used as the control for strain sensitivity.

[9] = system: Klebsiella pneumoniae (ATCC 13883); test: MIC/MBC broth dilution; type: cell-based
Method: as §3, §6, §7

[10] = system: NF-κB localization in RAW 264.7 macrophages; test: Immunofluorescence, NF-κB localization; type: cell-based, murine; details: 25 µM, co-treated with LPS 1 µg/mL
Method: as §5

[11] = system: Staphylococcus epidermidis (ATCC 14990); test: MIC/MBC broth dilution; type: cell-based
Method: as §3
(§8) -3 Gram-positive: Enterococcus faecalis (ATCC® 19433^TM), Staphylococcus aureus (ATCC® 23235^TM), and Staphylococcus epidermidis (ATCC® 14990™).
as §7

[12] = system: Enterococcus faecalis (ATCC 19433); test: MIC/MBC broth dilution; type: cell-based
Method: as §3, §8, §7

[13] = system: Staphylococcus aureus (ATCC 23235); test: MIC/MBC broth dilution; type: cell-based
Method: as §3, §8, §7

[14] = DPPH radical scavenging assay; type: biochemical
Method: The radical scavenging properties of the complexes on the 1,1-diphenyl-2-picrylhydrazil (DPPH) radical were evaluated as previously described.
All the complexes were used at different concentrations (10, 25, 50, 100, and 200 µg/mL) and the DPPH radical scavenging activity, measured at 517 nm using a microplate reader, was expressed as inhibition percentages (%IDPPH) compared to the initial concentration of DPPH (control) according to the following expression:(2) IDPPH (%)=ABSCTRL−ABSsample/ABSCTRL∗100 where ABSCTRL and ABSsample are the absorbance at 517 nm in the control and in the presence of samples, respectively.
The obtained IDPPH percentages allowed us to calculate the IC50 values using Graph-Pad Prism 9 software (GraphPad Inc., San Diego, CA, USA). Trolox was employed as a positive control, while caffeine and theophylline were reference compounds.

[15] = system: COX-2 expression in RAW 264.7 macrophages; test: Immunofluorescence, COX-2 expression; type: cell-based, murine; details: 25 µM, co-treated with LPS 1 µg/mL
Method: as §5

[16] = system: Staphylococcus aureus (ATCC 23235); parameters: method as in doi:10.1186/s40543-021-00294-2; details: literature data ref 75; cited from earlier work
[17] = system: Escherichia coli (ATCC 25922); parameters: method as in PMID 36179970; details: literature data ref 74; cited from earlier work
[18] = system: Klebsiella pneumoniae (ATCC 13883); parameters: method as in PMID 35203751; details: literature data ref 77; cited from earlier work
[19] = system: Staphylococcus epidermidis (ATCC 14990); parameters: method as in PMID 16556639; details: literature data ref 76; cited from earlier work
[20] = system: Enterococcus faecalis (ATCC 19433); parameters: method as in PMID 24586598; details: literature data ref 78; cited from earlier work

SMILES	IC50 [1] [µM]	IC50 [2] [µM]	M.I.C. S. typhimurium [3] [µg/mL]	M.I.C. P. aeruginosa [4] [µg/mL]	IC50 (MDA-MB-231) [µM]	IC50 (MCF-7) [µM]	COX-1 protein expression level [5]	iNOS expression level [6]	Reduction in NO production [7]	M.I.C. K. pneumoniae [9] [µg/mL]	NF-κB intracellular localization [10]	M.I.C. S. epidermidis [11] [µg/mL]	M.I.C. E. faecalis [12] [µg/mL]	M.I.C. S. aureus [13] [µg/mL]	IC50 [14] [µM]	Reduction in COX-2 expression (fluorescence) [15]	further results
CC(=O)[O][Ag-][c]1n(C)c2c(c(=O)n(C)c(=O)n2C)[n+]1CCO [AgL3OAc, 1,3,7-Trimethylxanthin-9-[(2-hydroxy)ethyl)-8-ylidene]Ag(I) Acetate]	> 100	> 500	150	150	> 100	> 100	no difference in protein expression level	net reduction in iNOS expression	about 14.35%	150	mostly cytoplasmic	100	150	125	> 500	about 60%	M.B.C. S. typhimurium [3]: > 200 µg/mL; M.B.C. P. aeruginosa [4]: > 200 µg/mL; M.B.C. E. coli [8]: > 200 µg/mL; M.B.C. K. pneumoniae [9]: > 200 µg/mL; M.B.C. S. epidermidis [11]: > 125 µg/mL; M.B.C. E. faecalis [12]: > 200 µg/mL; M.B.C. S. aureus [13]: > 200 µg/mL
CC1(C)S[C@@H]2[C@H](NC(=O)[C@H](N)c3ccccc3)C(=O)N2[C@H]1C(=O)O [Ampicillin]																	M.B.C. S. aureus [16]: 1/(1) [75] µg/mL; M.I.C. S. aureus [16]: 1/(1) [75] µg/mL; M.B.C. E. coli [17]: 4 µg/mL; M.I.C. E. coli [17]: 2 µg/mL
Cn1c(=O)c2c(n(C)[c]([Au-][I])[n+]2CCO)n(C)c1=O [AuL3]	> 100	> 500	>200	>200	> 100	> 100	no difference in protein expression level		~14.12%	>200	mostly cytoplasmic	>200	>200	>200	> 500	about 40%	M.I.C. E. coli [8]: >200 µg/mL
CNC(C)C1CCC(N)C(OC2C(N)CC(N)C(OC3OCC(C)(O)C(NC)C3O)C2O)O1 (stereo not drawn) [Gentamicin]																	M.B.C. K. pneumoniae [18]: > 40 µg/mL; M.I.C. K. pneumoniae [18]: 1.25 µg/mL; M.B.C. S. epidermidis [19]: 16 to 64 µg/mL; M.I.C. S. epidermidis [19]: 8 to 32 µg/mL; M.B.C. E. faecalis [20]: 128 µg/mL; M.I.C. E. faecalis [20]: 4 µg/mL
COc1ccc2c(c1)c(CC(=O)O)c(C)n2C(=O)c1ccc(Cl)cc1 [indomethacin, reference compound]							no difference in protein expression level	lower, reaching those obtained with the CTRL cells	about 11.23%		higher cytoplasmic localization of NF-κB					about 30%	
